Molecular target: T1, human red blood cell AChE (Homo sapiens, UniProt P22303)
T1 construct: human red blood cell AChE; from tissue; host or cells: human red blood cells
Experiment: AChE reactivation assay with echothiophate-inhibited human red blood cell AChE
Type: biochemical
Conditions: for activation at 1 µM: read-out: Percentages of AChE reactivation

[1] = single concentration 10^-6 M, added for 1 hour, AChE inhibited by echothiophate 10^-7 M, means ± standard errors of 4 measurements

T1 sequence (P22303 other isoform, or with tags, fused parts or gaps): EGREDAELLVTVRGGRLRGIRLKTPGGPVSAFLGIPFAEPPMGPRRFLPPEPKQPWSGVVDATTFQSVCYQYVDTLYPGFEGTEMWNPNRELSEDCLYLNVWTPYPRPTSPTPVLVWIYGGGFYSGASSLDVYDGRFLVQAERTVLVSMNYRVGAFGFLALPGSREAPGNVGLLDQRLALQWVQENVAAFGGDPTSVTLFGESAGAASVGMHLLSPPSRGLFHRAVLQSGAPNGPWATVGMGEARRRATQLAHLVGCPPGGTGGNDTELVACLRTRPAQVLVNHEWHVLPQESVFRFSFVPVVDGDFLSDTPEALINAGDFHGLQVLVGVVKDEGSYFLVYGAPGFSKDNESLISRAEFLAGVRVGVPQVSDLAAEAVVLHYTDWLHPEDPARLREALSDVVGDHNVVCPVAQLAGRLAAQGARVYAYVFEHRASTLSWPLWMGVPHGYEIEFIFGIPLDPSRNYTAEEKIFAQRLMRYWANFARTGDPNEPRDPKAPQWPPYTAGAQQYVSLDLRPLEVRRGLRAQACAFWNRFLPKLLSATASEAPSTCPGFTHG

Structure (SMILES) | activation at 1 µM [1] [%] | potency in reactivation relative to 2-PAM (full dose-response curves) (full dose-response curves, compared with 2-PAM) | Percentages of AChE reactivation [1] [%]
ON=Cc1cc[n+](CCCCCC[n+]2ccc(C=NO)cc2)cc1 [Compound 1a, 1,6-Hexylene-bis-N,N'-4-pyridiniumaldoxime dibromide] | 47 ± 1.8 |  | 
ON=Cc1cc[n+](CCCCCCC[n+]2ccc(C=NO)cc2)cc1 [Compound 1b, 1,7-Heptylene-bis-N,N'-4-pyridiniumaldoxime dibromide] | 61 ± 3.2 | ten-fold more potent | 
ON=Cc1cc[n+](CCCCCCCC[n+]2ccc(C=NO)cc2)cc1 [Compound 1c, 1,8-Octylene-bis-N,N'-4-pyridiniumaldoxime dibromide] | 44 ± 1.7 |  | 
ON=Cc1cc[n+](CCCCCCCCC[n+]2ccc(C=NO)cc2)cc1 [Compound 1d, 1,9-Nonylene-bis-N,N'-4-pyridiniumaldoxime dibromide] | 31 ± 2.3 |  | 
C[n+]1ccccc1C=NO [Compound 2-PAM, 2-pralidoxime, reference compound] | 17 |  | 17 ± 2.8
ON=Cc1cccc[n+]1CCCCCC[n+]1ccccc1C=NO [Compound 3a, 1,6-Hexylene-bis-N,N'-2-pyridinium aldoxime dichloride] | 67 ± 0.8 |  | 
ON=Cc1cccc[n+]1CCCCCCC[n+]1ccccc1C=NO [Compound 3b, 1,7-Heptylene-bis-N,N'-2-pyridiniumaldoxime dichloride] | 80 ± 3.7 |  | 
ON=Cc1cccc[n+]1CCCCCCCC[n+]1ccccc1C=NO [Compound 3c, 1,8-Octylene-bis-N,N'-2-pyridiniumaldoxime dichloride] | 69 ± 4.7 |  | 
ON=Cc1cccc[n+]1CCCCCCCCC[n+]1ccccc1C=NO [Compound 3d, 1,9-Nonylene-bis-N,N'-2-pyridiniumaldoxime dichloride] | 58 ± 0.5 |  | 
